Reference: the supplement of paper PMC10307832

Experiments:
Experiment in all cases: relative viability (nuclei count vs DMSO), 5 days (fraction); higher = more cells survive
[1] = compound: O=C(NC1CCNCC1)c1n[nH]cc1NC(=O)c1c(Cl)cccc1Cl [AT-7519] + CC(C)C[C@H](NC(=O)[C@H](Cc1ccccc1)NC(=O)c1cnccn1)B(O)O [Bortezomib] (partner 0.002 µM)
Method in brief: (§1)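 After 5 days of treatment, lung cancer cells in 1536-well plates were fixed and stained in a single step (final 0.05% Triton X-100, 1% formaldehyde, 1 ug/ml Hoechst) and their nuclei counted on 4× images. Treatment had been applied by pin tool the day after seeding as one drug alone or as a fixed anchor-drug dose with five library-drug doses (not always all listed) in √10 steps. Relative viability is the nuclei count of treated wells divided by that of vehicle wells, and values are medians of duplicate plates.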

[2] = compound: C1=CC2=C(C=C(C(=C2N=C1)O)N=NC3=CC4=C(C=C3)C=C(C=C4)S(=O)(=O)O)S(=O)(=O)O + CC(=O)c1c(C)c2cnc(Nc3ccc(N4CCNCC4)cn3)nc2n(C2CCCC2)c1=O [Palbociclib] (partner 0.5 µM)
Method in brief: as §1

[3] = compound: O=C(NC1CCNCC1)c1n[nH]cc1NC(=O)c1c(Cl)cccc1Cl [AT-7519] + O=C(CCCCCCC(=O)Nc1ccccc1)NO [Vorinostat] (partner 1 µM)
Method in brief: as §1

[4] = compound: C1=CC2=C(C=C(C(=C2N=C1)O)N=NC3=CC4=C(C=C3)C=C(C=C4)S(=O)(=O)O)S(=O)(=O)O + C[C@@H](Oc1cc(-c2cnn(C3CCNCC3)c2)cnc1N)c1c(Cl)ccc(F)c1Cl [Crizotinib] (partner 1 µM)
Method in brief: as §1

Cell Line	relative viability ([1]; first compound 0.01 µM)	relative viability ([1]; first compound 0.03162 µM)	relative viability ([1]; first compound 0.3162 µM)	relative viability ([1]; first compound 1 µM)	relative viability ([2]; first compound 0.08 µM)	relative viability ([2]; first compound 0.253 µM)	relative viability ([2]; first compound 0.8 µM)	relative viability ([2]; first compound 2.53 µM)	relative viability ([2]; first compound 8 µM)	relative viability ([3]; first compound 0.01 µM)	relative viability ([3]; first compound 0.03162 µM)	relative viability ([3]; first compound 0.3162 µM)	relative viability ([3]; first compound 1 µM)	relative viability ([4]; first compound 0.08 µM)	relative viability ([4]; first compound 0.253 µM)	relative viability ([4]; first compound 0.8 µM)	relative viability ([4]; first compound 2.53 µM)	relative viability ([4]; first compound 8 µM)
HCC-15	1.07	1.01	0.852	0.977	0.759	0.658	0.737	0.67	0.723	0.857	0.796	0.799	0.565	0.957	0.851	0.806	0.824	0.77
HCC-44	0.752	1.02	1.01	0.979	1.02	0.96	0.964	1.01	0.975	1.16	1.08	1.11	1.08	0.935	0.767	0.807	0.819	0.859
HCC-78	0.479	0.38	0.6	0.516	0.566	0.463	0.505	0.45	0.466	0.411	0.409	0.438	0.417	0.388	0.336	0.328	0.337	0.203
HCC-366	1.26	0.864	1.07	0.442	0.459	0.385	0.377	0.391	0.325	0.254	0.325	0.278	0.241	0.759	0.445	0.404	0.618	0.46
IA-LM	0.927	0.979	0.781	0.302	–	–	–	–	–	0.607	0.501	1.01	0.723	1.16	0.602	0.822	0.757	0.9
LK-2	–	–	–	–	0.768	0.529	0.626	0.77	0.721	0.247	0.258	0.332	0.241	0.275	0.223	0.244	0.218	0.162
NCI-H358	–	–	–	–	0.138	0.134	0.166	0.134	0.135	0.646	0.604	0.5	0.108	0.582	0.606	0.616	0.618	0.351
NCI-H522	–	–	–	–	0.957	0.981	0.934	0.849	0.923	0.933	0.815	0.963	1.05	–	–	–	–	–
NCI-H596	1.08	1.13	0.882	1.03	–	–	–	–	–	0.584	0.611	0.471	0.697	1.13	1.02	0.921	0.899	0.898
NCI-H1299	1.05	0.996	1.05	1.28	–	–	–	–	–	–	–	–	–	0.892	0.971	0.933	0.943	0.988
NCI-H1395	–	–	–	–	0.692	0.614	0.616	0.572	0.628	0.82	0.655	0.57	0.565	–	–	–	–	–
NCI-H1563	0.874	0.905	0.901	0.85	–	–	–	–	–	–	–	–	–	0.875	0.883	0.886	0.851	0.873
NCI-H1648	–	–	–	–	–	0.29	–	–	0.301	0.479	–	0.29	0.3	–	–	–	–	–
NCI-H1703	0.392	0.323	0.182	0.151	–	–	–	–	–	–	–	–	–	0.795	0.717	0.526	0.559	0.735
NCI-H1792	0.752	0.89	0.882	0.888	0.674	0.654	0.673	0.667	0.597	–	–	–	–	1.15	0.947	0.933	1.02	0.961
NCI-H1793	–	–	–	–	0.352	0.327	0.283	0.3	0.271	0.514	0.849	0.615	0.767	–	–	–	–	–
NCI-H1944	–	–	–	–	0.347	0.323	0.337	0.359	0.327	0.547	0.528	0.534	0.436	1.24	1.1	1.09	1.12	0.846
NCI-H2170	–	–	–	–	0.469	0.401	0.393	0.438	0.402	0.718	0.867	0.869	0.736	1.38	1.1	1.15	1.23	1.2
NCI-H2342	–	–	–	–	0.576	0.538	0.532	0.6	0.542	0.773	0.696	0.772	0.631	–	–	–	–	–
SK-MES-1	–	–	–	–	0.351	0.332	0.34	0.318	0.342	1.2	1.1	1.05	0.934	0.96	0.886	0.963	1	0.948
SW 900	–	–	–	–	0.53	0.58	0.477	0.648	0.579	0.398	0.482	0.294	0.493	–	–	–	–	–
